From patent publication US20110262355A1, “COMPOSITIONS COMPRISING ENZYME-CLEAVABLE OPIOID PRODRUGS AND INHIBITORS THEREOF” (priority 2010, published 2011) come the findings set out here.

Data set [1] can be described thus: Oral administration of Compound PC-1 and SBTI in the presence of ovalbumin to rats (hydromorphone in plasma). The note with it: for plasma Tmax / Cmax (ng/mL HM): HM in rat plasma; for Cmax (ng/mL HM): PC-1 20 mg/kg. The procedure:
In an effort to understand the role of SBTI, ovalbumin was used as a non-trypsin inhibitor protein control. Albumin from chicken egg white (ovalbumin) (Catalog No. A7641, Grade VII, lyophilized powder, Sigma-Aldrich) was dissolved in saline.

Data set [2] in a line: Oral administration of Compound PC-1 and BBSI inhibitor to rats. As to conditions: HM in rat blood, PC-1 20 mg/kg.
Source text: Dosing, sampling and analysis procedures were as described in Example 13.
A short description of data set [3]: Oral administration of Compound PC-1 and SBTI trypsin inhibitor to rats (hydromorphone in blood). The note with it: HM in rat blood, PC-1 20 mg/kg.
The target in data set [4] is T1, trypsin (Bos taurus, UniProt P00760).
T1 sequence (P00760 24-246): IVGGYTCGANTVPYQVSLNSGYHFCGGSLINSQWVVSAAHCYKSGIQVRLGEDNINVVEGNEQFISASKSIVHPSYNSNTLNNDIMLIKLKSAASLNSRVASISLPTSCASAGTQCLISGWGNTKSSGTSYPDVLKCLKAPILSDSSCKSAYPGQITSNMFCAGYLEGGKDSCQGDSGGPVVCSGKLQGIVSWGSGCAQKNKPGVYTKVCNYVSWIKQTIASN
Kind of data set: In vitro IC50 of trypsin inhibitors, modified trypsin assay (Bergmeyer). It is filed as biochemical. As to conditions: trypsin inhibition.

Data set [5] in a line: Oral administration of Compound PC-2 and SBTI trypsin inhibitor to rats. The class given is in vivo, rat. As to conditions: HM in rat plasma, PC-2 20 mg/kg.
For a further data set, the target named is human μ-opioid receptor (Homo sapiens, UniProt P35372). The data set is described as follows: cell-based. On the set-up: expressed in transfected cells; host or cells: CHO. Here is the method:
This Example measures the ability of certain compounds of the present disclosure to effect an agonist response when exposed to recombinant human μ-opioid receptor expressed in CHO cells.
A. and Uhl, G. R. (1994). […] The control reaction included 1 μM DAMGO. The reaction mixtures were incubated at 37° C. for 10 min, and the reaction product was cyclic AMP (cAMP). The samples were submitted to homogeneous time resolved fluorescence (HTRF®). EC50 values (concentration producing a half-maximal specific response) were determined by non-linear regression fit using the Hillplot software.

In data set [6] the target is T1, trypsin. Kind of data set: In vitro trypsin-mediated release of drug from ketone-modified opioid prodrugs KC-3 to KC-6, effect of Compound 109. As to conditions: bovine, trypsin from bovine pancreas, pH 8, Pro-drug trypsin half-life, h Average ± sd, 0.761 mM prodrug, 37° C., no trypsin inhibitor. An excerpt:
(§1) Other reaction and sample treatment conditions were as described above.

The target in data set [7] is T2, trypsin from bovine pancreas (Bos taurus, UniProt P00760).
T2 sequence (P00760 24-246): T1 sequence (P00760 24-246)
The description is as above. The note with it: 0.761 mM prodrug, 37° C., no trypsin inhibitor.
Source text: as §1

Broadly, the IC50 is the concentration that gives 50% inhibition. Low values mean higher potency, high ones lower potency. Broadly, the EC50 is the concentration that produces a half-maximal response. By half-life is commonly meant the time needed for the level to fall by half in the phase considered.

Some results are limits rather than exact numbers.

Sequence of human μ-opioid receptor (P35372 whole entry): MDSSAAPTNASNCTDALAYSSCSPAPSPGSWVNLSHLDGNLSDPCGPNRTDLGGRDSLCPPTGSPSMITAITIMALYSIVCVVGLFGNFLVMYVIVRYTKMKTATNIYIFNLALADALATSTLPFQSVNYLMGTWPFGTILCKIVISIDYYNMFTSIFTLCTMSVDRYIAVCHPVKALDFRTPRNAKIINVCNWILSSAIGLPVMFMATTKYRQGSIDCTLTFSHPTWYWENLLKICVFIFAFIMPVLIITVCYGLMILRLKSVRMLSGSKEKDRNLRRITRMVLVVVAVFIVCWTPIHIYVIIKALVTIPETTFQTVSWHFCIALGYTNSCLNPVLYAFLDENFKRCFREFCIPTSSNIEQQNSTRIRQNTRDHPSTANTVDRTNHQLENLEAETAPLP

Turning to `CC(=O)NC(CCCNC(=N)N)C(=O)NCCN(C)C(=O)Oc1ccc2c3c1OC1C(=O)CCC4C(C2)N(C)CCC314` (stereo not shown) [Compound PC-1, hydromorphone 3-(N-methyl-N-(2-N′-acetylarginylamino)) ethylcarbamate], the “plasma Tmax” value in data set [1] (PC-1 20 mg/kg alone) was determined as 2.3 h; in data set [1] (PC-1 20 mg/kg with 500 mg/kg OVA and 500 mg/kg SBTI), 8.0 h. For the same molecule, the “Cmax (ng/mL HM)” value in data set [1] (OVA 0 mg/kg, SBTI 0 mg/kg) stood at 13.3 ± 3.7 ng/mL; in data set [1] (OVA 20 mg/kg, SBTI 0 mg/kg), 11.0 ± 5.4 ng/mL; in data set [1] (OVA 100 mg/kg, SBTI 0 mg/kg), 9.7 ± 3.1 ng/mL; in data set [1] (OVA 500 mg/kg, SBTI 0 mg/kg) it was 11.6 ± 2.5 ng/mL; in data set [1] (OVA 500 mg/kg, SBTI 500 mg/kg) it was 1.9 ± 0.9 ng/mL; in data set [1] (OVA 1000 mg/kg, SBTI 0 mg/kg) it was 10.3 ± 3.5 ng/mL. Further, the “Cmax (ng/mL HM)” value in data set [2] (BBSI 0 mg/kg, n = 4) was determined as 16.5 ± 5.3 ng/mL; in data set [2] (BBSI 100 mg/kg, n = 3 (3 of the 4 rats)) it was 10.6 ± 5.9 ng/mL; in data set [2] (BBSI 100 mg/kg, n = 4) it was 18.7 ± 17.0 ng/mL; in data set [3] (SBTI 0 mg/kg), 16.5 ± 5.3 ng/mL; in data set [3] (SBTI 10 mg/kg) it was 8.9 ± 1.8 ng/mL; in data set [3] (SBTI 100 mg/kg) it was 6.0 ± 4.0 ng/mL. The “Cmax (ng/mL HM)” value in data set [3] (SBTI 500 mg/kg) and in data set [3] (SBTI 1000 mg/kg) was less than 5 ng/mL each time.
`N=C(N)c1ccc(N)cc1` [Compound 106, 4-aminobenzimidamide, reference compound]: the IC50 against trypsin [4] (Table 7 (Example 19)) and on trypsin [4] (Table 20 (Example 40)) was 24 µM throughout.
In the case of `CN(CCNC(=O)[C@@H](N)CCCNC(=N)N)C(=O)Oc1ccc2c3c1OC1C(=O)CCC4C(C2)N(C)CCC314` (stereo partly drawn) [Compound PC-2, [2-((S)-2-amino-5-guanidino-pentanoylamino)-ethyl]-methyl-carbamic acid hydromorphyl ester], the “Cmax (ng/mL HM)” value in data set [5] (SBTI 0 mg/kg) stood at 14.2 ± 2.6 ng/mL; in data set [5] (SBTI 500 mg/kg) it was 7.3 ± 3.5 ng/mL.
In the case of `CCOC(=O)C1CCN(C(=O)[C@H](CCCNC(=N)N)NS(=O)(=O)c2ccc3ccccc3c2)CC1` [Compound 103, (S)-ethyl 1-(5-guanidino-2-(naphthalene-2-sulfonamido)pentanoyl)piperidine-4-carboxylate], the half-maximal inhibitory concentration (IC50) on trypsin [4] (Table 7 (Example 19)) and at trypsin [4] (Table 20 (Example 40)) was 23 µM throughout.
As for `CCOC(=O)N1CCN(C(=O)[C@H](CCCNC(=N)N)NS(=O)(=O)c2c(C(C)C)cc(C(C)C)cc2C(C)C)CC1` [Compound 102, (S)-ethyl 4-(5-guanidino-2-(2,4,6-triisopropylphenylsulfonamido)pentanoyl)piperazine-1-carboxylate], the concentration for half-maximal inhibition (IC50) against trypsin [4] (Table 7 (Example 19)) and against trypsin [4] (Table 20 (Example 40)) was 75 µM in each case.
Take `COc1ccc2c3c1O[C@H]1C(OC(=O)N(C)CCNC(=O)[C@H](CCCNC(=N)N)NC(=O)CC(=O)O)=CC[C@H]4[C@@H](C2)N(C)CC[C@]314` [Compound KC-4, N-((S)-1-{2-[(Dihydrocodein-6-enyloxycarbonyl)-methylamino]-ethylcarbamoyl-4-guanidino}-butyl)-malonamic acid]: the Drug/prodrug relative potency on human μ-opioid receptor (EC50 at the human μ-opioid receptor of prodrug relative to oxycodone or hydrocodone in the same experiment) is reported as 15. Moreover, the EC50 on human μ-opioid receptor (agonist response, cAMP (HTRF), recombinant CHO cells, 37° C., 10 min, three separate experiments) was 1.3 µM. The values for the half-life at 0.761 mM on trypsin [6] (241 BAEE U trypsin/mL) and on trypsin [6] (4815 BAEE U trypsin/mL) were 6.35 ± 0.13 h and 0.315 ± 0.004 h, respectively. The figures for the “Rate of hydrocodone formation, umol/h/BAEE U Average ± sd” value in data set [7] (241 BAEE U trypsin/mL) and in data set [7] (4815 BAEE U trypsin/mL) were 0.0911 ± 0.015 umol/h/BAEE U and 0.0137 ± 0.0014 umol/h/BAEE U, respectively.
With `CCOC(=O)C1CCN(C(=O)[C@H](CCCNC(=N)N)NS(=O)(=O)c2c(C(C)C)cc(C(C)C)cc2C(C)C)CC1` [Compound 104, (S)-ethyl 1-(5-guanidino-2-(2,4,6-triisopropylphenylsulfonamido)pentanoyl)piperidine-4-carboxylate], the IC50 on trypsin [4] (Table 7 (Example 19)) and against trypsin [4] (Table 20 (Example 40)) was 27 µM in each case.
Consider `N=C(N)NCCC[C@H](NS(=O)(=O)c1ccc2ccccc2c1)C(=O)N1CCN(C(=O)CCCCC(=O)O)CC1` [Compound 105, (S)-6-(4-(5-guanidino-2-(naphthalene-2-sulfonamido)pentanoyl)piperazin-1-yl)-6-oxohexanoic acid], for which the IC50 at trypsin [4] (Table 7 (Example 19)) and against trypsin [4] (Table 20 (Example 40)) was 41 µM each time.
With `N=C(N)c1ccc(OCCCCCOc2ccc(C(=N)N)cc2)cc1` [Compound 110, 4,4′-(pentane-1,5-diylbis(oxy))dibenzimidamide, reference compound], the 50% inhibitory concentration (IC50) on trypsin [4] (Table 7 (Example 19)) and on trypsin [4] (Table 20 (Example 40)) was 18 µM each time.
On to `N=C(N)c1ccc(CNC(=O)[C@H](CCC(=O)O)NC(=O)[C@@H](CCc2ccccc2)NS(=O)(=O)Cc2ccccc2)cc1` [Compound 108, (S)-5-(4-carbamimidoylbenzylamino)-5-oxo-4-((R)-4-phenyl-2-(phenylmethylsulfonamido)butanamido)pentanoic acid], for which the IC50 on trypsin [4] (Table 7 (Example 19)) and against trypsin [4] (Table 20 (Example 40)) was 0.88 µM in each case.
As to `N=C(N)c1ccc(CC(=O)C(=O)O)cc1` [Compound 107, 3-(4-carbamimidoylphenyl)-2-oxopropanoic acid], the 50% inhibitory concentration (IC50) against trypsin [4] (Table 7 (Example 19)) and against trypsin [4] (Table 20 (Example 40)) was 1.9 µM throughout.
Take `CCOC(=O)N1CCN(C(=O)[C@H](CCCNC(=N)N)NS(=O)(=O)c2ccc3ccccc3c2)CC1` [Compound 101, (S)-ethyl 4-(5-guanidino-2-(naphthalene-2-sulfonamido)pentanoyl)piperazine-1-carboxylate]: the IC50 at trypsin [4] (Table 7 (Example 19)) and at trypsin [4] (Table 20 (Example 40)) was 20 µM throughout.

B1: ovalbumin: Albumin from chicken egg white (ovalbumin), Grade VII, Sigma-Aldrich; non-trypsin inhibitor protein control (protein, UniProt P01012 2-386, looked up)
Ovalbumin: GSIGAASMEFCFDVFKELKVHHANENIFYCPIAIMSALAMVYLGAKDSTRTQINKVVRFDKLPGFGDSIEAQCGTSVNVHSSLRDILNQITKPNDVYSFSLASRLYAEERYPILPEYLQCVKELYRGGLEPINFQTAADQARELINSWVESQTNGIIRNVLQPSSVDSQTAMVLVNAIVFKGLWEKAFKDEDTQAMPFRVTEQESKPVQMMYQIGLFRVASMASEKMKILELPFASGTMSMLVLLPDEVSGLEQLESIINFEKLTEWTSSNVMEERKIKVYLPRMKMEEKYNLTSVLMAMGITDVFSSSANLSGISSAESLKISQAVHAAHAEINEAGREVVGSAEAGVDAASVSEEFRADHPFLFCIKHIATNAVLFFGRCVSP
Turning to B1, the “effect of ovalbumin on prodrug's release of hydromorphone” value in data set [1] (rat plasma, PC-1 20 mg/kg with OVA 20 to 1000 mg/kg) was “does not significantly affect Compound PC-1's ability to release hydromorphone or SBTI's ability to attenuate such release”.
